The values below come from patent publication US20120088809A1, “1-(2-ALKYL-2,3-DIHYDRO-BENZOFURAN-4-YL)-PYRROLIDIN-3-YLAMINE ACYL COMPOUNDS” (priority 2009, published 2012).

The target in data set [1] is T1, recombinant human-MT1 receptor (Homo sapiens, UniProt P48039).
T1 construct: expressed in transfected cells; host or cells: unnamed cell line co-expressing mitochondrial apoaequorin and Gα16
The data set is described as follows: In vitro MT1 screening (AequoScreen aequorin luminescence, agonism). The class given is cell-based. To be noted: percentage of activity relative to the reference agonist at the EC100 concentration. From the text:
To proceed with compound screening over MT1 receptor, a cell line characterised by a stable overexpression of recombinant human-MT1 receptor was used. This line co-expresses mitochondrial apoaequorin and subunit Gα16.
Subunit Gα16 belongs to GPCR superfamily, in which intracellular signal transduction is produced via phospholipase (PLC). Activation of PLC produces an increment of inositol-triphosphate levels and intracellular calcium levels. This increment in calcium levels is, therefore, independent and full compatible with the signal transduction of MT1 receptor.
After binding to calcium, aequorin carries out the oxidation of colenterazine to colenteramide, a luminescent reaction.
Assay protocol for agonist screening consists in an overnight incubation of cells and colenterazine, being performed by an AequoScreen™ system instrument, PerkinElmer, USA. After that this mixture was injected over a plate that contains the solution of the compounds to screen and luminescence was immediately read. Only in case of antagonism screening, after 15-30 min of the first injection the reference agonist was added in the same well, and then luminescence was measured.
Agonist activity was calculated as percentage of activity relative to the reference agonist at the EC100 concentration.

Data set [2] can be described thus: Plasma drug levels after oral administration. The class given is in vivo. To be noted: male Sprague-Dawley rats; for Ratio 15/60 (plasma level 15 min / 60 min): oral 3 mg/kg; for concentration at 15 min / concentration at 60 min: rat, plasma; for concentration at 15 min: 15 min after oral administration of 3 mg/kg; for concentration at 60 min: 60 min after oral administration of 3 mg/kg. Here is the method:
The compounds of formula I show the surprising advantage of being maintained at more sustained plasma levels and thus being long acting. This can be evidenced, for instance, by measuring the plasma levels after oral administration to rats at 15 and 60 min after oral administration, resulting in lower ratio values for the compounds of the present invention. Thus the compounds of formula I, characterized in that R2 is an alkyl radical show more sustained plasma levels than prior art compounds (EP1189900B1), wherein R2 is hydrogen. […] Consequently, the present compounds allow for a more efficient therapy: the slow elimination facilitates maintaining a stable plasma concentration at a non-toxic, effective level and the prolonged effect may be expected to result in better compliance of the subject to be treated with the prescribed medication.

Molecules are shown by their SMILES.

T1 sequence (P48039 whole entry): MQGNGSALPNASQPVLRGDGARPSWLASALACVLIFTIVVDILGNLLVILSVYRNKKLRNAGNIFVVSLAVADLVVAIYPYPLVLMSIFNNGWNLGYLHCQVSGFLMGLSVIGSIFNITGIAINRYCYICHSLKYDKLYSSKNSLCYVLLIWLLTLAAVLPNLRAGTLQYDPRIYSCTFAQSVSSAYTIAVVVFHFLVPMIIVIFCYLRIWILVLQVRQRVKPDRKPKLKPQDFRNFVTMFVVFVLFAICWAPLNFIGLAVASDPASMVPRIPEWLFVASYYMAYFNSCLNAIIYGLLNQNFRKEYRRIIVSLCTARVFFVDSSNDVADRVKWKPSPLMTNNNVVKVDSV

For the molecule `COC(=O)N[C@H]1CCN(c2ccc(F)c3c2CC(C)O3)C1` (stereo partly drawn) [Example 10, Methyl (3S)-1-(7-fluoro-2-methyl-2,3-dihydrobenzofuran-4-yl)pyrrolidin-3-ylcarbamate], the activation at 0.001 µM in data set [1] (1 nM compound) worked out at 36%. Moreover, the activation at 0.1 µM in data set [1] (100 nM compound) was 89%.
On to `CC1Cc2c(cccc2N2CC[C@H](NC(=O)C3CC3)C2)O1` (stereo partly drawn) [Example 17, N-((3S)-1-(2-methyl-2,3-dihydrobenzofuran-4-yl)pyrrolidin-3-yl)cyclopropanecarboxamide], for which, in data set [2], the “Ratio 15/60 (plasma level 15 min / 60 min)” value stood at 0.47, the concentration at 15 min worked out at 17 ng/mL and the concentration at 60 min is 36 ng/mL. For the same molecule, the activation at 0.001 µM in data set [1] (1 nM compound) was 6%. Further, the activation at 0.1 µM in data set [1] (100 nM compound) is 79%.
For `CC1Cc2c(N3CC[C@H](NC(=O)C(C)C)C3)ccc(F)c2O1` (stereo partly drawn) [Example 6, N-((3S)-1-(7-fluoro-2-methyl-2,3-dihydrobenzofuran-4-yl)pyrrolidin-3-yl)isobutyramide], the activation at 0.001 µM in data set [1] (1 nM compound) amounted to 24%. The activation at 0.1 µM in data set [1] (100 nM compound) was determined as 75%.
For `CCNC(=O)N[C@H]1CCN(c2ccc(F)c3c2CC(C)O3)C1` (stereo partly drawn) [Example 12, 1-Ethyl-3-((3S)-1-(7-fluoro-2-methyl-2,3-dihydrobenzofuran-4-yl)pyrrolidin-3-yl)urea], in that order: 18% and 90%.
In the case of `CC(C)CC(=O)N[C@H]1CCN(c2cccc3c2CC(C)O3)C1` (stereo partly drawn) [Example 18, 3-methyl-N-((3S)-1-(2-methyl-2,3-dihydrobenzofuran-4-yl)pyrrolidin-3-yl)butanamide], the activation at 0.001 µM in data set [1] (1 nM compound) was determined as 28%. In addition, the activation at 0.1 µM in data set [1] (100 nM compound) was determined as 82%.
Take `CCC1Cc2c(cccc2N2CC[C@H](NC(C)=O)C2)O1` (stereo partly drawn) [Example 19, N-((3S)-1-(2-ethyl-2,3-dihydrobenzofuran-4-yl)pyrrolidin-3-yl)acetamide]: the activation at 0.001 µM in data set [1] (1 nM compound) amounted to 23%. The activation at 0.1 µM in data set [1] (100 nM compound) was determined as 81%.
In the case of `CCCC(=O)N[C@H]1CCN(c2ccc(F)c3c2CC(C)O3)C1` (stereo partly drawn) [Example 5, N-((3S)-1-(7-fluoro-2-methyl-2,3-dihydrobenzofuran-4-yl)pyrrolidin-3-yl)butyramide], the activation at 0.001 µM in data set [1] (1 nM compound) was 32%. Moreover, the activation at 0.1 µM in data set [1] (100 nM compound) amounted to 91%.
On to `CCC(=O)N[C@H]1CCN(c2ccc(F)c3c2CC(C)O3)C1` (stereo partly drawn) [Example 3, N-((3S)-1-(7-fluoro-2-methyl-2,3-dihydrobenzofuran-4-yl)pyrrolidin-3-yl)propionamide], for which, in data set [2], the “Ratio 15/60 (plasma level 15 min / 60 min)” value is listed as 1.74, the concentration at 15 min amounted to 113 ng/mL and the concentration at 60 min turned out to be 64.9 ng/mL. Further, the activation at 0.001 µM in data set [1] (1 nM compound) came out at 30%. Besides, the activation at 0.1 µM in data set [1] (100 nM compound) was found to be 88%.
On to `CC1Cc2c(N3CC[C@H](NC(=O)C(C)F)C3)ccc(F)c2O1` (stereo partly drawn) [Example 4, 2-fluoro-N-((3S)-1-(7-fluoro-2-methyl-2,3-dihydrobenzofuran-4-yl)pyrrolidin-3-yl)propanamide], for which the activation at 0.001 µM in data set [1] (1 nM compound) came out at 44%. Further, in data set [1] (100 nM compound), the activation at 0.1 µM turned out to be 98%.
For `CCC(=O)N[C@H]1CCN(c2cccc3c2CC(CC)O3)C1` (stereo partly drawn) [Example 20, N-((3S)-1-(2-ethyl-2,3-dihydrobenzofuran-4-yl)pyrrolidin-3-yl)propionamide], in data set [2], the “Ratio 15/60 (plasma level 15 min / 60 min)” value worked out at 1.80, the concentration at 15 min was 106 ng/mL and the concentration at 60 min was 59 ng/mL. Besides, the activation at 0.001 µM in data set [1] (1 nM compound) is 26%. For the same molecule, in data set [1] (100 nM compound), the activation at 0.1 µM was found to be 88%.
With `CCC(C)C(=O)N[C@H]1CCN(c2ccc(F)c3c2CC(C)O3)C1` (stereo partly drawn) [Example 9, N-((3S)-1-(7-fluoro-2-methyl-2,3-dihydrobenzofuran-4-yl)pyrrolidin-3-yl)-2-methylbutanamide], the activation at 0.001 µM in data set [1] (1 nM compound) came to 17%. In addition, the activation at 0.1 µM in data set [1] (100 nM compound) came to 70%.
On the same counts, the results for `CCOC(=O)N[C@H]1CCN(c2ccc(F)c3c2CC(C)O3)C1` (stereo partly drawn) [Example 11, Ethyl (3S)-1-(7-fluoro-2-methyl-2,3-dihydrobenzofuran-4-yl)pyrrolidin-3-ylcarbamate] are 28% and 73%.
For `CCC(=O)NCC[C@@H]1CCc2ccc3c(c21)CCO3` [Ramelteon, N-[2-[(8S)-1,6,7,8-tetrahydro-2H-indeno[5,4-b]furan-8-yl)ethyl]propionamide, reference compound], in data set [2], the “Ratio 15/60 (plasma level 15 min / 60 min)” value is 3.94, the concentration at 15 min worked out at 280 ng/mL and the concentration at 60 min was 71 ng/mL. For the same molecule, the activation at 0.001 µM in data set [1] (1 nM compound) was found to be 45%. In addition, the activation at 0.1 µM in data set [1] (100 nM compound) is 118%.
For the molecule `CC(=O)N[C@H]1CCN(c2ccc(F)c3c2CC(C)O3)C1` (stereo partly drawn) [Example 1, N-((3S)-1-(7-fluoro-2-methyl-2,3-dihydrobenzofuran-4-yl)pyrrolidin-3-yl)acetamide], in data set [2], the “Ratio 15/60 (plasma level 15 min / 60 min)” value was determined as 1.03, the concentration at 15 min is 56.8 ng/mL and the concentration at 60 min was determined as 55.4 ng/mL. Moreover, the activation at 0.001 µM in data set [1] (1 nM compound) is 19%. Besides, the activation at 0.1 µM in data set [1] (100 nM compound) is 73%.
Turning to `CC1Cc2c(cccc2N2CC[C@H](NC(=O)C(C)C)C2)O1` (stereo partly drawn) [Example 16, N-((3S)-1-(2-methyl-2,3-dihydrobenzofuran-4-yl)pyrrolidin-3-yl)isobutyramide], the activation at 0.001 µM in data set [1] (1 nM compound) is 6%. Further, the activation at 0.1 µM in data set [1] (100 nM compound) amounted to 76%.
Consider `CCC(=O)N[C@H]1CCN(c2cccc3c2CC(C)O3)C1` (stereo partly drawn) [Example 15, N-((3S)-1-(2-methyl-2,3-dihydrobenzofuran-4-yl)pyrrolidin-3-yl)propionamide], for which the activation at 0.001 µM in data set [1] (1 nM compound) is 18%. The activation at 0.1 µM in data set [1] (100 nM compound) is 92%.
As to `CC(=O)N[C@H]1CCN(c2cccc3c2CC(C)O3)C1` (stereo partly drawn) [Example 13, N-((3S)-1-(2-methyl-2,3-dihydrobenzofuran-4-yl)pyrrolidin-3-yl)acetamide], in data set [2], the “Ratio 15/60 (plasma level 15 min / 60 min)” value was determined as 2.29, the concentration at 15 min was determined as 433 ng/mL and the concentration at 60 min was 189 ng/mL. In data set [1] (1 nM compound), the activation at 0.001 µM worked out at 17%. The activation at 0.1 µM in data set [1] (100 nM compound) came out at 91%.
In the case of `CCCCC(=O)N[C@H]1CCN(c2ccc(F)c3c2CC(C)O3)C1` (stereo partly drawn) [Example 8, N-((3S)-1-(7-fluoro-2-methyl-2,3-dihydrobenzofuran-4-yl)pyrrolidin-3-yl)pentanamide], the activation at 0.001 µM in data set [1] (1 nM compound) stood at 31%. The activation at 0.1 µM in data set [1] (100 nM compound) came out at 89%.
With `CCCC1Cc2c(cccc2N2CC[C@H](NC(=O)CC)C2)O1` (stereo partly drawn) [Example 21, N-((3S)-1-(2-propyl-2,3-dihydrobenzofuran-4-yl)pyrrolidin-3-yl)propionamide], in data set [2], the “Ratio 15/60 (plasma level 15 min / 60 min)” value amounted to 1.59, the concentration at 15 min is 59 ng/mL and the concentration at 60 min was found to be 37 ng/mL. Further, the activation at 0.001 µM in data set [1] (1 nM compound) stood at 15%. Besides, in data set [1] (100 nM compound), the activation at 0.1 µM was 78%.
For `CC1Cc2c(N3CC[C@H](NC(=O)C4CC4)C3)ccc(F)c2O1` (stereo partly drawn) [Example 7, N-((3S)-1-(7-fluoro-2-methyl-2,3-dihydrobenzofuran-4-yl)pyrrolidin-3-yl)cyclopropanecarboxamide], in that order: 0.58, 5.1 ng/mL, 8.8 ng/mL, 22% and 80%.
For the molecule `CC1Cc2c(N3CC[C@H](NC(=O)C(F)(F)F)C3)ccc(F)c2O1` (stereo partly drawn) [Example 2, 2,2,2-trifluoro-N-((3S)-1-(7-fluoro-2-methyl-2,3-dihydrobenzofuran-4-yl)pyrrolidin-3-yl)acetamide], the activation at 0.001 µM in data set [1] (1 nM compound) turned out to be 32%. Also, the activation at 0.1 µM in data set [1] (100 nM compound) is 79%.
For the molecule `COc1ccc2[nH]cc(CCNC(C)=O)c2c1` [Melatonin, reference compound], in data set [2], the “Ratio 15/60 (plasma level 15 min / 60 min)” value came to 3.49, the concentration at 15 min was found to be 255 ng/mL and the concentration at 60 min worked out at 73 ng/mL. Further, in data set [1] (1 nM compound), the “% MT1 at 1 nM (agonism percentage)” value worked out at 42%. Moreover, the “% MT1 at 100 nM (agonism percentage)” value in data set [1] (100 nM compound) turned out to be 101%.
Consider `CC1Cc2c(cccc2N2CC[C@H](NC(=O)C(F)(F)F)C2)O1` (stereo partly drawn) [Example 14, 2,2,2-trifluoro-N-((3S)-1-(2-methyl-2,3-dihydrobenzofuran-4-yl)pyrrolidin-3-yl)acetamide], for which, in data set [1] (1 nM compound), the activation at 0.001 µM was 8%. Besides, the activation at 0.1 µM in data set [1] (100 nM compound) is 79%.
